Two molecules from patent US8894993B2, “Mitochondria-targeted antioxidants” (Natreon Inc., priority 2006, dated 2014) can be followed below.

What all share (format): in vivo, Swiss albino mice
Data set [1] has as its system Blood levels of ATP and energy related indices. Description: Blood ATP and energy related indices in mice after forced swimming stress. As to the method:
Swiss albino mice (20±2 g) were fed orally with—(a) 3,8-(OH)2-DBP and (b) 3-OH-DBP (each 25 mg/Kg b.w.), per day, for 7 days. In case of the controls, only vehicle (0.8% carboxymethyl cellulose in water) was administered for seven days of the experiment. The animals were subjected to ‘forced swimming’ for 30 minutes on the 7th day of the experiment [Pliakas, A. M., Carlson, R. R., Neve, R. L., Konradi, C., Nestler, E. J. and Carlezon, W. A. 2001. J. Neurosci., 21(18), 7397-7403]. Immediately after the swimming, blood was collected from all the animals for analysis of ATP and related nucleotides by HPLC [Smolenska, Z., Kaznowska, Z., Zarowny, D., Simmonds, H. A. and Smolenski, R. T. 1999. Rheumatology, 38, 997-1002; Komarova, S. V., Mosharov, E. V., Vitvitsky, V. M. and Ataullakhanov, F. I. 1999. Blood Cell Mol. Dis., 25(13), 170-179; Marquardt, D. L., Gruber, H. E. and Wasserman, S. I. 1984. Proc. Natl. Acad. Sci., 81, 6192-6196]. AEC (adenylate energy charge) was calculated according to the method of Atkinson and Walton [Atkinson D E & Walton G M, Adenosine triphosphate conservation in metabolic regulation, J Biol Chem, 242 (1967) 3239] and TAN (total adenine nucleotides) was calculated according to an established method [Spencer M K & Katz A, Role of glycogen in control of glycolysis and IMP formation in human muscle during exercise, Am J Physiol, 260 (1991) E859].

Data set [2] concerns Catalase activity in liver. Description: Catalase activity in liver of mice after restraint stress. Particulars: 25 mg/Kg p.o. 7 days, control 3.9. As to the method:
(§1) Swiss albino mice (20±2 g) were fed orally with—(a) 3-OH-DBP and (b) 3,8-(OH)2-DBP (each 25 mg/Kg b.w. per day, for 7 days). In case of the controls, only vehicle (0.8% carboxymethyl cellulose in water) was administered for seven days of the experiment. All the animals of all the groups were subjected to restraint stress (for 60 minutes) on the seventh day of the experiment, 2 hours after drug administration, according to a published method [Figueiredo, H. F., Bodie, B. L., Tauchi, M., Dolgas, C. M. and Herman, J. P. 2003. Endocrinology, 144, 5249-5258]. The model was selected in the present experiment, because restraint stress is a widely used model of acute oxidative stress. Immediately after being exposed to stress, the animals were sacrificed, blood was collected for analysis by HPLC of ATP and related nucleotides [Smolenska, Z., Kaznowska, Z., Zarowny, D., Simmonds, H. A. and Smolenski, R. T. 1999. […] AEC (adenylate energy charge) was calculated according to the method of Atkinson and Walton [Atkinson D E & Walton G M, Adenosine triphosphate conservation in metabolic regulation, J Biol Chem, 242 (1967) 3239] and TAN (total adenine nucleotides) was calculated according to an established method [Spencer M K & Katz A, Role of glycogen in control of glycolysis and IMP formation in human muscle during exercise, Am J Physiol, 260 (1991) E859]. […]

For data set [3], the system named is Blood levels of ATP and energy related indices. Briefly: Blood ATP and energy related indices in mice after restraint stress. Particulars: 25 mg/Kg p.o. 7 days. As to the method:
Swiss albino mice (20±2 g) were fed orally with—(a) 3-OH-DBP and (b) 3,8-(OH)2-DBP (each 25 mg/Kg b.w. per day, for 7 days). In case of the controls, only vehicle (0.8% carboxymethyl cellulose in water) was administered for seven days of the experiment. All the animals of all the groups were subjected to restraint stress (for 60 minutes) on the seventh day of the experiment, 2 hours after drug administration, according to a published method [Figueiredo, H. F., Bodie, B. L., Tauchi, M., Dolgas, C. M. and Herman, J. P. 2003. Endocrinology, 144, 5249-5258]. The model was selected in the present experiment, because restraint stress is a widely used model of acute oxidative stress. Immediately after being exposed to stress, the animals were sacrificed, blood was collected for analysis by HPLC of ATP and related nucleotides [Smolenska, Z., Kaznowska, Z., Zarowny, D., Simmonds, H. A. and Smolenski, R. T. 1999. Rheumatology, 38, 997-1002; Komarova, S. V., Mosharov, E. V., Vitvitsky, V. M. and Ataullakhanov, F. I. 1999. Blood Cell Mol. Dis., 25(13), 170-179; Marquardt, D. L., Gruber, H. E. and Wasserman, S. I. 1984. Proc. Natl. Acad. Sci., 81, 6192-6196], and liver was collected for measurement of superoxide dismutase and catalase activities [Zielinski, S, and Pörtner, H. 2000. Comparative Biochem. Physiol. Part B, 125, 147-[60]. AEC (adenylate energy charge) was calculated according to the method of Atkinson and Walton [Atkinson D E & Walton G M, Adenosine triphosphate conservation in metabolic regulation, J Biol Chem, 242 (1967) 3239] and TAN (total adenine nucleotides) was calculated according to an established method [Spencer M K & Katz A, Role of glycogen in control of glycolysis and IMP formation in human muscle during exercise, Am J Physiol, 260 (1991) E859].

For data set [4], the system named is Superoxide dismutase (SOD) activity in liver. Briefly: Superoxide dismutase activity in liver of mice after restraint stress. Particulars: 25 mg/Kg p.o. 7 days, control 0.6. As to the method: as §1
Data set [5] is described as follows: Coenzyme Q in mice blood plasma and organs after oral feeding, HPLC. Particulars: oral each 5 mg/Kg b.w. per day for 5 days. As to the method:
One year old caged stressed Sprague-Dawley rats (250-270 gms) were fed the following, individually or in combination after suspension in 0.8% carboxymethyl cellulose: CoQ10 (5 mg/Kg b.w./day) and 3,8-(OH)2-DBP (5 mg/Kg b.w./day) for 5 days. Blood was collected by puncture of the retro-orbital plexus. The plasma was separated by centrifugation, extracted with methanol and subjected to HPLC. In another experiment, Swiss albino mice (20±2 g) were fed orally with—(a) 3,8-(OH)2-DBP; (b) CoQ10; (c) a combination of 3,8-(OH)2-DBP and CoQ10 and (d) 3,8-(OH)2-DBP and CoQ10 in a clathrated form with Shilajit-fusoms (each 5 mg/Kg b.w.), per day, for 5 days. The animals were subjected to hypoxic stress for 1 hour each day for 3 days from the 3rd day of the experiment. After the stipulated time-period, the content of CoQ10 and their conjugates with DBP were estimated in heart, kidney, liver (in wet weight basis) and in blood, by HPLC, after proper extraction from the tissues according to the procedure depicted in the literature (Rousseau, G and Varin, F, Determination of Ubiquinone-9 and 10 levels in rat tissues and blood by High Performance Liquid Chromatography with Ultraviolet detection. J. Chromat. Sci., 36(5): 247-252, 1998).
Column—RP C18 Xterra [250×4 mm]
Mobile phase—Methanol:Acetonitrile:Ethanol 30:30:40
Detection—PDA 275 nm for CoQ10
Bioavailability was more when CoQ10 and 3,8-(OH)2-DBP using the fulvic acid system. A systemic increment of CoQ10 was also observed in mice blood plasma and a few organs upon oral feeding of this formulation. The extent of the increment of CoQ10 was more when CoQ10 and 3,8-(OH)2-DBP were targeted to mitochondria using the fulvic acid delivery system (Table 5). A similar trend in the increment was also observed in the case of CoQ10-DBP conjugates when the fulvic acid system was used. […] Thus, concurrent supplementation of CoQ10 and 3,8-(OH)2-DBP [or 3-OH-DBP, which is systemically converted into 3,8-(OH)2-DBP] using a fulvic acid delivery system would efficiently perform their targeting to mitochondria. This can be regarded as effective therapeutic strategy against stress-induced oxidative damage of cells and DNA damage due to old-age.

The test system of data set [6] is stress-induced lipid peroxidation of mouse brain. Briefly: Stress-induced lipid peroxidation of mouse brain (thiobarbituric acid reaction). Particulars: oral each 5 mg/Kg b.w. per day for 5 days, hypoxic stress, control 1.169. As to the method: (§2) Swiss albino mice (20±g) were fed orally with—(a) 3,8-(OH)2-DBP; (b) CoQ10; (c) a combination of 3,8-(OH)2-DBP and CoQ10 and (d) 3,8-(OH)2-DBP and CoQ10 in a clathrated form with fusoms (each 5 mg/Kg b.w.), per day, for 5 days. The animals were subjected to hypoxic stress for 1 hour each day for 3 days from the 3rd day of the experiment. After the stipulated time-period, brain and liver of the animals were collected and mitochondria from the liver were separated as described previously (Liu Y, Deng F, Zhao R and Qu S, Chemosphere, 40(8):851-854, 2000). Lipid peroxidation in brain and liver-mitochondria was estimated by the method of Ohkawa et al. (Ohkawa H, Ohishi N and Yagi K, Assay for lipid peroxides in animal tissues by thiobarbituric acid reaction. Anal. Biochem., 95:351-358, 1979).

In data set [7] the test system is stress-induced lipid peroxidation of mouse liver mitochondria. Description: Stress-induced lipid peroxidation of mouse liver mitochondria (thiobarbituric acid reaction). Particulars: oral each 5 mg/Kg b.w. per day for 5 days, hypoxic stress, control 0.495. As to the method: as §2

Take `O=c1oc2cc(O)ccc2c2ccccc12` [3-OH-DBP, 3-hydroxydibenzo-α-pyrone]: the “content of ATP, AEC values and ATP/ADP ratio (in blood), in words” value in data set [1] (albino mice engaged in forced swimming) is listed as “significantly improved”. Further, the ATP is 0.72 ± 0.03 µM in data set [1] (blood, forced swimming, 25 mg/Kg p.o. 7 days, mean ± SEM of 6, control 0.60 ± 0.01) and 0.66 ± 0.04 µM in data set [3] (mean ± SEM of 6, control 0.67 ± 0.03). For the same molecule, the TAN is 0.90 ± 0.04 µM in data set [1] (blood, forced swimming, 25 mg/Kg p.o. 7 days, mean ± SEM of 6, control 0.79 ± 0.01) and 0.79 ± 0.05 µM in data set [3] (mean ± SEM of 6, control 0.76 ± 0.03). In addition, the AEC is recorded as 0.89 ± 0.002 in data set [1] (blood, forced swimming, 25 mg/Kg p.o. 7 days, mean ± SEM of 6, control 0.86 ± 0.003) and 0.90 ± 0.01 in data set [3] (mean ± SEM of 6, control 0.89 ± 0.01). Also, the ATP/ADP ratio in data set [1] (blood, forced swimming, 25 mg/Kg p.o. 7 days, mean ± SEM of 6, control 3.84 ± 0.09) came to 4.82 ± 0.09; in data set [3] (mean ± SEM of 6, control 4.90 ± 0.32), 7.04 ± 0.38. Besides, the “Catalase activity in liver” value in data set [2] was 3.5 U/mg tissue. In addition, the ADP in data set [3] (mean ± SEM of 6, control 0.14 ± 0.02) is recorded as 0.09 ± 0.01 µM. In addition, in data set [4], the “SOD activity in liver” value stood at 0.91 U/gm tissue.
As for `COC1=C(OC)C(=O)C(C/C=C(\C)CC/C=C(\C)CC/C=C(\C)CC/C=C(\C)CC/C=C(\C)CC/C=C(\C)CC/C=C(\C)CC/C=C(\C)CC/C=C(\C)CCC=C(C)C)=C(C)C1=O` [CoQ10], in data set [5] (Swiss albino, mouse, blood), the concentration at 5 days is 810 nM. Moreover, in data set [5] (wet weight), the “Coenzyme Q: Heart” value is listed as 35.69 nmol/gm, the “Coenzyme Q: Kidney” value is recorded as 16.51 nmol/gm and the “Coenzyme Q: Liver” value was found to be 19.41 nmol/gm. Moreover, in data set [6], the “OD Values at 532 nm (lipid peroxidation)” value is reported as 1.147. Also, the “OD Values at 532 nm (lipid peroxidation)” value in data set [7] was 0.467.
